Measurements as given in US20160158200A1, “Combinations of Hepatitis C Virus Inhibitors” (priority 2013, published 2016).

Key:
[1] = tested on: HCV genotype 1a Y93H variant with tyrosine 93 changed to histidine in the NS5A protein; assay: microbe, parasite or virus in culture; type: cell-based; details: genotype 1a Y93H replicon; test compound titrated with compound N47 fixed at 200 nM versus singly
Method: Combinations can be examined for synergistic activity using a variety of putative NS5A-targeting compounds and a variety of test compounds. […] The test compound can be chosen from compounds exemplified below, which were prepared by methods known in the art, or from others disclosed in the literature.
Similarly, BMS-790052 can be tested singly and in combination with a fixed amount of compound N47 in the HCV replicon cell based assay consisting of the genotype 1a Y93H variant with tyrosine 93 changed to histidine in the NS5A protein.

[2] = tested on: HCV genotype 1a L31V variant with leucine 31 changed to valine in the NS5A protein; assay: microbe, parasite or virus in culture; type: cell-based; details: genotype 1a L31V replicon; test compound titrated with compound N47 fixed at 200 nM versus singly

Compound	Fold-Synergistic G-1a (Y93H) [1]	Fold-Synergistic G-1a (L31V) [2]
COC(=O)N[C@H](C(=O)N1CC(F)(F)C[C@H]1c1nc(-c2ccc(-c3ccc(-c4c[nH]c([C@@H]5CC(F)(F)CN5C(=O)[C@@H](NC(=O)OC)C(C)C)n4)cc3)cc2)c[nH]1)C(C)C	>100 fold	>100 fold
O=C(c1nc(Cl)cc2ccccc12)N1CCC[C@H]1c1nc2ccc(C#Cc3ccc4nc([C@@H]5CCCN5C(=O)c5nc(Cl)cc6ccccc56)[nH]c4c3)cc2[nH]1	<10 fold	<10 fold
COc1cccc2c(C(=O)N3CCC[C@H]3c3nc4ccc(-c5cnc(-c6cccc(O)c6)o5)cc4[nH]3)nc(Cl)cc12	<10 fold	<10 fold
O=C(Nc1ccc(C#Cc2ccc(NC(=O)[C@@H]3CCCN3C(=O)CC3CC3)cc2)cc1)[C@@H]1CCCN1C(=O)CC1CC1	<10 fold	<10 fold
COC(=O)N[C@H](C(=O)N1CCC[C@H]1c1nc2cc(-c3ccc4ccc(-c5ccc6nc([C@@H]7CCCN7C(=O)[C@@H](NC(=O)OC)C(C)C)[nH]c6c5)cc4c3)ccc2[nH]1)C(C)C	>10 fold	>10 fold
C=C1C[C@@H](c2nc(-c3ccc(-c4ccc5cc(-c6c[nH]c([C@@H]7CC(=C)CN7C(=O)[C@@H](NC(=O)OC)C(C)C)n6)ccc5c4)cc3)c[nH]2)N(C(=O)[C@@H](NC(=O)OC)C(C)C)C1	>100 fold	<10 fold
O=C1C(c2ccccc2)N(c2ccc(-c3cnc(-c4ccc(N5C(=O)C6CCCN6C(=O)C5c5ccccc5)cc4)o3)cc2)C(=O)C2CCCN12 (stereo not drawn)	<10 fold	<10 fold
COC(=O)N[C@H](C(=O)N1[C@@H]2C[C@@H]2C[C@H]1c1nc2ccc(C#CC#Cc3ccc4nc([C@@H]5C[C@H]6C[C@H]6N5C(=O)[C@@H](NC(=O)OC)C(C)C)[nH]c4c3)cc2[nH]1)C(C)C	>100 fold	>10 fold
COC(=O)N[C@H](C(=O)N1[C@@H]2C[C@@H]2C[C@H]1c1nc(-c2ccn3nc(-c4ccc(-c5cnc([C@@H]6C[C@H]7C[C@H]7N6C(=O)[C@@H](NC(=O)OC)C(C)C)[nH]5)cc4)cc3c2)c[nH]1)C(C)C	>100 fold	>100 fold
CN1CCN(C(C(=O)N2CCC[C@H]2C(=O)Nc2ccc(C#Cc3ccc(NC(=O)[C@@H]4CCCN4C(=O)C(c4ccccc4)N4CCN(C)CC4)cc3)cc2)c2ccccc2)CC1 (stereo partly drawn)	<10 fold	<10 fold
COC(=O)N[C@H](C(=O)N1[C@@H](C)CC[C@H]1c1ncc(-c2ccc(-c3ccc(-c4cnc([C@@H]5CC[C@H](C)N5C(=O)[C@@H](NC(=O)OC)C(C)C)[nH]4)cc3)cc2)[nH]1)C(C)C	>100 fold	>100 fold
COC(=O)N[C@@H](C(=O)N1CCC[C@H]1c1nc2ccc(-c3ncc(-c4ccc(N5CCOCC5)cc4)o3)cc2[nH]1)c1ccccc1	<10 fold	<10 fold
COC(=O)N[C@H](C(=O)N1CCC[C@H]1c1ncc(-c2ccc(-c3ccc4c(c3)CCCc3[nH]c([C@@H]5CCCN5C(=O)[C@@H](NC(=O)OC)C(C)C)nc3-4)cc2)[nH]1)C(C)C	>100 fold	>100 fold
COC(=O)N[C@H](C(=O)N1[C@@H]2C[C@@H]2C[C@H]1c1nc2cc(CCc3ccc4c(ccc5[nH]c([C@@H]6C[C@H]7C[C@H]7N6C(=O)[C@@H](NC(=O)OC)C6CCOCC6)nc54)c3)ccc2[nH]1)C(C)C	>100 fold	>10 fold
CN(C)C(C(=O)N1CCC[C@H]1c1nc(-c2ccc3nc([C@@H]4CCCN4C(=O)C(c4ccccc4)N(C)C)[nH]c3c2)c[nH]1)c1ccccc1 (stereo partly drawn)	<10 fold	<10 fold
COC(=O)N[C@H](C(=O)N1[C@@H]2C[C@@H]2C[C@H]1c1ncc(-c2ccc(-c3ccc4cc(-c5cnc([C@@H]6C[C@H]7C[C@H]7N6C(=O)[C@@H](NC(=O)OC)C(C)C)[nH]5)ccc4c3)cc2)[nH]1)C(C)C	>10 fold	<10 fold
COC(=O)N[C@H](C(=O)N1CCC[C@H]1c1nc(-c2ccc(-c3ccc4nc([C@@H]5CCCN5C(=O)[C@@H](NC(=O)OC)C(C)C)[nH]c4c3)cc2)c[nH]1)C(C)C	>100 fold	>10 fold
COC(=O)N[C@H](C(=O)N1[C@H](c2ncc(-c3ccc(-c4ccc(-c5cnc([C@@H]6C[C@@H](C)[C@H](C)N6C(=O)[C@@H](NC(=O)OC)C(C)C)[nH]5)cc4)cc3)[nH]2)C[C@@H](C)[C@@H]1C)C(C)C	>100 fold	>100 fold
COC(=O)N[C@H](C(=O)N1[C@@H]2C[C@@H]2C[C@H]1c1ncc(-c2ccc([C@@H]3C[C@H]3c3ccc(-c4cnc([C@@H]5C[C@H]6C[C@H]6N5C(=O)[C@@H](NC(=O)OC)C(C)C)[nH]4)cc3)cc2)[nH]1)C(C)C	>10 fold	>10 fold
COC(=O)N[C@H](C(=O)N1[C@@H]2C[C@@H]2C[C@H]1c1nc(-c2ccc3cc(-c4ccc5cc(-c6c[nH]c([C@@H]7C[C@H]8C[C@H]8N7C(=O)[C@@H](NC(=O)OC)C(C)C)n6)ccc5c4)ccc3c2)c[nH]1)C(C)C	<10 fold	<10 fold
COC(=O)N[C@H](C(=O)N1CCC[C@H]1c1nc2cc(C#Cc3ccc4[nH]c([C@@H]5CCCN5C(=O)[C@@H](NC(=O)OC)C(C)C)nc4c3)ccc2[nH]1)C(C)C	>10 fold	<10 fold
COC(=O)N[C@H](C(=O)N1[C@@H]2C[C@@H]2C[C@H]1c1nc2cc(-c3ccc(Oc4cccc5[nH]c([C@@H]6C[C@H]7C[C@H]7N6C(=O)[C@@H](NC(=O)OC)C(C)C)nc45)cc3)ccc2[nH]1)C(C)C	>100 fold	>10 fold
COC(=O)N[C@H](C(=O)N1[C@@H]2C[C@@H]2C[C@H]1c1nc(-c2ccc3oc(-c4ccc(-c5cnc([C@@H]6C[C@H]7C[C@H]7N6C(=O)[C@@H](NC(=O)OC)C6CCOCC6)[nH]5)cc4)cc3c2)c[nH]1)C1CCOCC1	<10 fold	<10 fold
COC(=O)N[C@H](C(=O)N1[C@H](C)CC[C@H]1c1nc(-c2ccc(-c3ccc4cc(-c5c[nH]c([C@@H]6CC[C@@H](C)N6C(=O)[C@@H](NC(=O)OC)C(C)C)n5)ccc4c3)cc2)c[nH]1)C(C)C	<10 fold	>10 fold
